Data from patent US20230085307A1, “PYRIDAZINONE COMPOUND AND HERBICIDE” (NISSAN CHEMICAL CORPORATION, priority 2019, published 2023).

Experiments:
barnyard grass [1] = assay: Test Example 4: herbicidal effect by soil treatment (Table 19, symbol H); type: in vivo, barnyard grass (Echinochloa crus-galli); settings: amount of applied herbicide 320 g/ha
In short: (§1)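 In this soil treatment, the formulated compound reached the seeds only through the soil: seeds were buried about 1.5 cm deep in sterilized diluvial soil, then the diluted emulsion was sprayed over the surface. After three weeks at 25° C. to 30° C. in a greenhouse, effects were graded on criteria from an earlier test.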

velvetleaf = assay: Test Example 4: herbicidal effect by soil treatment (Table 19, symbol M); type: in vivo, velvetleaf (Abutilon theophrasti); settings: amount of applied herbicide 320 g/ha
In short: as §1

rice flat sedge = assay: Test Example 3: herbicidal effect by foliage application, Wagner pot (Table 18, symbol E); type: in vivo, rice flat sedge (Cyperus iria); settings: amount of applied herbicide 320 g/ha
In short: (§2)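 Plants were sown in alluvial soil held under 0.1–0.5 cm standing water and grown 14 days in a greenhouse at 25–30 °C. An emulsifiable formulation, water-diluted to the set dose, was then sprayed onto the foliage, and effects were scored three weeks later using previously defined criteria.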

green foxtail = assay: Test Example 4: herbicidal effect by soil treatment (Table 19, symbol G); type: in vivo, green foxtail (Setaria viridis); settings: amount of applied herbicide 320 g/ha
In short: as §1

barnyard grass [2] = assay: Test Example 5: herbicidal effect by foliage application, plastic box (Table 20, symbol H); type: in vivo, barnyard grass (Echinochloa crus-galli); settings: foliage application, 320 g/ha, evaluated three weeks after application
In short: (§3)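 Plants were sown into sterilized diluvial soil under about 1.5 cm cover and kept in a greenhouse at 25° C. to 30° C. Fourteen days on, foliage received an even spray of the diluted emulsion. Herbicidal or crop effect was judged three weeks afterwards.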

southern crabgrass = assay: Test Example 5: herbicidal effect by foliage application, plastic box (Table 20, symbol F); type: in vivo, southern crabgrass (Digitaria ciliaris); settings: foliage application, 320 g/ha, evaluated three weeks after application
In short: as §3

chickweed = assay: Test Example 4: herbicidal effect by soil treatment (Table 19, symbol P); type: in vivo, common chickweed (Stellaria media); settings: amount of applied herbicide 320 g/ha
In short: as §1

barnyard grass [3] = assay: Test Example 3: herbicidal effect by foliage application, Wagner pot (Table 18, symbol H); type: in vivo, barnyard grass (Echinochloa crus-galli); settings: amount of applied herbicide 320 g/ha
In short: as §2

Japanese bulrush = assay: Test Example 2: herbicidal activity, application during weed generation under submerged conditions (Table 17, symbol B); type: in vivo, Japanese bulrush (Schoenoplectus juncoides); settings: AAH 320 g/ha; application during weed generation, submerged conditions
In short: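 3-wk visual-criteria score after one water-surface dose. Emulsion formulation, water-diluted to set rate; applied at 1–2 leaf stage; alluvial soil, 4 cm standing water; seeds co-sown; greenhouse 25–30° C.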

blackgrass = assay: Test Example 5: herbicidal effect by foliage application, plastic box (Table 20, symbol J); type: in vivo, blackgrass (Alopecurus myosuroides); settings: foliage application, 320 g/ha, evaluated three weeks after application
In short: as §3

wild oat = assay: Test Example 5: herbicidal effect by foliage application, plastic box (Table 20, symbol I); type: in vivo, wild oat (Avena fatua); settings: foliage application, 320 g/ha, evaluated three weeks after application
In short: as §3

late watergrass = assay: Test Example 1: herbicidal activity, application before weed generation under submerged conditions (Table 16, symbol A); type: in vivo, late watergrass (Echinochloa oryzicola); settings: 320 g/ha applied herbicide
In short: (§4)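 Submerged Wagner pots (alluvial soil, 4 cm water) sown with weed seeds and planted with 2.5-leaf rice seedlings; emulsifiable concentrate diluted in water applied to water surface on sowing day. Held in greenhouse at 25-30 °C; injury scored 0-5 by herbicidal rate after three weeks.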

redroot pigweed = assay: Test Example 4: herbicidal effect by soil treatment (Table 19, symbol N); type: in vivo, redroot pigweed (Amaranthus retroflexus); settings: amount of applied herbicide 320 g/ha
In short: as §1

persian speedwell [4] = assay: Test Example 5: herbicidal effect by foliage application, plastic box (Table 20, symbol R); type: in vivo, Persian speedwell (Veronica persica); settings: foliage application, 320 g/ha, evaluated three weeks after application
In short: as §3

oval-leafed pondweed = assay: Test Example 1: herbicidal activity, application before weed generation under submerged conditions (Table 16, symbol C); type: in vivo, oval-leafed pondweed (Monochoria vaginalis); settings: 320 g/ha applied herbicide
In short: as §4

persian speedwell [5] = assay: Test Example 4: herbicidal effect by soil treatment (Table 19, symbol R); type: in vivo, Persian speedwell (Veronica persica); settings: amount of applied herbicide 320 g/ha
In short: as §1

| Compound | H: barnyard grass, herbicidal effect rating (barnyard grass [1]) | M: velvetleaf, herbicidal effect rating (velvetleaf) | herbicidal effect on E: rice flat sedge (rice flat sedge) | G: green foxtail, herbicidal effect rating (green foxtail) | herbicidal effect on H: barnyard grass (criteria 0-5) (barnyard grass [2]) | herbicidal effect on F: southern crabgrass (criteria 0-5) (southern crabgrass) | P: chickweed, herbicidal effect rating (chickweed) | herbicidal effect on H: barnyard grass (barnyard grass [3]) | herbicidal effect rating, B: Japanese bulrush (Japanese bulrush) | herbicidal effect on J: blackgrass (criteria 0-5) (blackgrass) | herbicidal effect on I: wild oat (criteria 0-5) (wild oat) | Herbicidal effect on A: late watergrass (grade 0-5) (late watergrass) | N: redroot pigweed, herbicidal effect rating (redroot pigweed) | herbicidal effect on R: persian speedwell (criteria 0-5) (persian speedwell [4]) | Herbicidal effect on C: oval-leafed pondweed (grade 0-5) (oval-leafed pondweed) | R: persian speedwell, herbicidal effect rating (persian speedwell [5]) |
| --- | --- | --- | --- | --- | --- | --- | --- | --- | --- | --- | --- | --- | --- | --- | --- | --- |
| Cc1nn(C)c(=O)c(-c2c(-c3ccccc3)sc3ccc(F)cc23)c1O [2-197] | 5 (Herbicidal rate of 90% or more (almost completely withered)) | 4 (Herbicidal rate of 70% or more and less than 90%) | 5 (Herbicidal rate of 90% or more (almost completely withered)) | 4 (Herbicidal rate of 70% or more and less than 90%) | 5 (Herbicidal rate of 90% or more (almost completely withered)) | 5 (Herbicidal rate of 90% or more (almost completely withered)) | 3 (Herbicidal rate of 40% or more and less than 70%) | 5 (Herbicidal rate of 90% or more (almost completely withered)) | 3 (Herbicidal rate of 40% or more and less than 70%) | 4 (Herbicidal rate of 70% or more and less than 90%) | 4 (Herbicidal rate of 70% or more and less than 90%) | 3 (Herbicidal rate of 40% or more and less than 70%) | 5 (Herbicidal rate of 90% or more (almost completely withered)) | 5 (Herbicidal rate of 90% or more (almost completely withered)) | 3 (Herbicidal rate of 40% or more and less than 70%) | 3 (Herbicidal rate of 40% or more and less than 70%) |
| CCCC(=O)Oc1c(C)nn(C)c(=O)c1-c1c(-c2ccccc2)sc2ccc(F)cc12 [2-198] | 4 (Herbicidal rate of 70% or more and less than 90%) | 3 (Herbicidal rate of 40% or more and less than 70%) | 5 (Herbicidal rate of 90% or more (almost completely withered)) | 5 (Herbicidal rate of 90% or more (almost completely withered)) | 3 (Herbicidal rate of 40% or more and less than 70%) | 5 (Herbicidal rate of 90% or more (almost completely withered)) | 4 (Herbicidal rate of 70% or more and less than 90%) | 5 (Herbicidal rate of 90% or more (almost completely withered)) | 3 (Herbicidal rate of 40% or more and less than 70%) | 4 (Herbicidal rate of 70% or more and less than 90%) | 4 (Herbicidal rate of 70% or more and less than 90%) | 5 (Herbicidal rate of 90% or more (almost completely withered)) | 5 (Herbicidal rate of 90% or more (almost completely withered)) | 5 (Herbicidal rate of 90% or more (almost completely withered)) | 3 (Herbicidal rate of 40% or more and less than 70%) | 4 (Herbicidal rate of 70% or more and less than 90%) |
| Cc1nn(C)c(=O)c(-c2c(-c3ccccc3F)sc3ccc(F)cc23)c1O [2-199] | 4 (Herbicidal rate of 70% or more and less than 90%) | 1 (Herbicidal rate of 5% or more and less than 20%) | 5 (Herbicidal rate of 90% or more (almost completely withered)) | 4 (Herbicidal rate of 70% or more and less than 90%) | 3 (Herbicidal rate of 40% or more and less than 70%) | 4 (Herbicidal rate of 70% or more and less than 90%) | 2 (Herbicidal rate of 20% or more and less than 40%) | 5 (Herbicidal rate of 90% or more (almost completely withered)) | 2 (Herbicidal rate of 20% or more and less than 40%) | 3 (Herbicidal rate of 40% or more and less than 70%) | 1 (Herbicidal rate of 5% or more and less than 20%) | 1 (Herbicidal rate of 5% or more and less than 20%) | 4 (Herbicidal rate of 70% or more and less than 90%) | 5 (Herbicidal rate of 90% or more (almost completely withered)) | 2 (Herbicidal rate of 20% or more and less than 40%) | 0 (Herbicidal rate of 5% or less (almost no effect)) |
| Cc1nn(C)c(=O)c(-c2c(-c3ccc(Br)cc3)sc3ccc(F)cc23)c1O [2-205] | 4 (Herbicidal rate of 70% or more and less than 90%) | 2 (Herbicidal rate of 20% or more and less than 40%) | 5 (Herbicidal rate of 90% or more (almost completely withered)) | 5 (Herbicidal rate of 90% or more (almost completely withered)) | 5 (Herbicidal rate of 90% or more (almost completely withered)) | 5 (Herbicidal rate of 90% or more (almost completely withered)) | 3 (Herbicidal rate of 40% or more and less than 70%) | 5 (Herbicidal rate of 90% or more (almost completely withered)) | 3 (Herbicidal rate of 40% or more and less than 70%) | 4 (Herbicidal rate of 70% or more and less than 90%) | 4 (Herbicidal rate of 70% or more and less than 90%) | 4 (Herbicidal rate of 70% or more and less than 90%) | 5 (Herbicidal rate of 90% or more (almost completely withered)) | 5 (Herbicidal rate of 90% or more (almost completely withered)) | 1 (Herbicidal rate of 5% or more and less than 20%) | 5 (Herbicidal rate of 90% or more (almost completely withered)) |
| CCCC(=O)Oc1c(C)nn(C)c(=O)c1-c1c(-c2ccc(Br)cc2)sc2ccc(F)cc12 [2-206] | 2 (Herbicidal rate of 20% or more and less than 40%) | 2 (Herbicidal rate of 20% or more and less than 40%) | 5 (Herbicidal rate of 90% or more (almost completely withered)) | 3 (Herbicidal rate of 40% or more and less than 70%) | 5 (Herbicidal rate of 90% or more (almost completely withered)) | 3 (Herbicidal rate of 40% or more and less than 70%) | 4 (Herbicidal rate of 70% or more and less than 90%) | 5 (Herbicidal rate of 90% or more (almost completely withered)) | 3 (Herbicidal rate of 40% or more and less than 70%) | 4 (Herbicidal rate of 70% or more and less than 90%) | 4 (Herbicidal rate of 70% or more and less than 90%) | 5 (Herbicidal rate of 90% or more (almost completely withered)) | 5 (Herbicidal rate of 90% or more (almost completely withered)) | 5 (Herbicidal rate of 90% or more (almost completely withered)) | 4 (Herbicidal rate of 70% or more and less than 90%) | 5 (Herbicidal rate of 90% or more (almost completely withered)) |
